{
  "source": "patent US11655225B2",
  "about": "“Antimycobacterial heterocyclic amides” (Crestone, Inc., priority 2018, dated 2023)",
  "data": [
    {"tested_on": "M. abscessus", "test": "MIC determination, CLSI M24-A", "type": "cell-based", "conditions": "Mycobacteroides abscessus, CLSI M24-A", "units": {"MIC": "µg/mL"}, "values": [
      {"smiles": "CC12CC3CC(C)(C1)CC(C(=O)Nc1nc4ccc(Br)cc4o1)(C3)C2", "note": "[Example 115, N-(6-bromo-1,3-benzoxazol-2-yl)-3,5-dimethyladamantane-1-carboxamide]", "MIC": "2 to 32"},
      {"smiles": "O=C(Nc1nc2c(F)c(F)c(F)cc2s1)C1CCCCCC1", "note": "[Example 141, N-(4,5,6-trifluoro-1,3-benzothiazol-2-yl)cycloheptanecarboxamide]", "MIC": "2 to 32"},
      {"smiles": "CC1CC(C(=O)Nc2nc3cc(Br)ccc3s2)CC(C)(C)C1", "note": "(stereo not drawn) [Example 190, N-(5-bromo-1,3-benzothiazol-2-yl)-3,3,5-trimethylcyclohexane-1-carboxamide]", "MIC": "2 to 32"},
      {"smiles": "COc1ccc2nc(NC(=O)C3CC(C)CC(C)(C)C3)oc2c1", "note": "(stereo not drawn) [Example 162, N-(6-methoxy-1,3-benzoxazol-2-yl)-3,3,5-trimethylcyclohexane-1-carboxamide]", "MIC": "2 to 32"},
      {"smiles": "CC1CC(C(=O)Nc2nc3ccccc3o2)CC(C)(C)C1", "note": "(stereo not drawn) [Example 165, N-(1,3-benzoxazol-2-yl)-3,3,5-trimethylcyclohexane-1-carboxamide]", "MIC": "2 to 32"},
      {"smiles": "Cc1cc(C)c2oc(NC(=O)C3CC(C)CC(C)(C)C3)nc2c1", "note": "(stereo not drawn) [Example 143, N-(5,7-dimethyl-1,3-benzoxazol-2-yl)-3,3,5-trimethylcyclohexane-1-carboxamide]", "MIC": "2 to 32"},
      {"smiles": "O=C(Nc1nc2ccccc2o1)C12CC3CC(CC(C3)C1)C2", "note": "[Example 155, N-(1,3-benzoxazol-2-yl)adamantane-1-carboxamide]", "MIC": "2 to 32"},
      {"smiles": "CC(C)(C)C(=O)Nc1nc2ccc(OC(F)(F)F)cc2s1", "note": "[Example 173, 2,2-dimethyl-N-[6-(trifluoromethoxy)-1,3-benzothiazol-2-yl]propanamide]", "MIC": "2 to 32"},
      {"smiles": "CC1CC(C(=O)Nc2nc3c(F)cccc3s2)CC(C)(C)C1", "note": "(stereo not drawn) [Example 121, N-(4-fluoro-1,3-benzothiazol-2-yl)-3,3,5-trimethylcyclohexane-1-carboxamide]", "MIC": "2 to 32"},
      {"smiles": "CC12CC3CC(C)(C1)CC(C(=O)Nc1nc4ccccc4o1)(C3)C2", "note": "[Example 147, N-(1,3-benzoxazol-2-yl)-3,5-dimethyladamantane-1-carboxamide]", "MIC": "2 to 32"},
      {"smiles": "CC1CC(C(=O)Nc2nc3ccc(N(C)C)cc3s2)CC(C)(C)C1", "note": "(stereo not drawn) [Example 186, N-[6-(dimethylamino)-1,3-benzothiazol-2-yl]-3,3,5-trimethylcyclohexane-1-carboxamide]", "MIC": "2 to 32"},
      {"smiles": "CC1CC(C(=O)Nc2nc3ccc(C(F)(F)F)cc3o2)CC(C)(C)C1", "note": "(stereo not drawn) [Example 163, 3,3,5-trimethyl-N-[6-(trifluoromethyl)-1,3-benzoxazol-2-yl]cyclohexane-1-carboxamide]", "MIC": "2 to 32"},
      {"smiles": "O=C(Nc1nc2ccc(OC(F)(F)F)cc2s1)C1CCCCC1", "note": "[Example 188, N-[6-(trifluoromethoxy)-1,3-benzothiazol-2-yl]cyclohexanecarboxamide]", "MIC": "2 to 32"},
      {"smiles": "O=C(Nc1cc2ccccc2s1)C1CCCCC1", "note": "[Example 176, N-(1-benzothiophen-2-yl)cyclohexanecarboxamide]", "MIC": "2 to 32"},
      {"smiles": "CC12CC3CC(C)(C1)CC(C(=O)Nc1nc4ccc(F)cc4[nH]1)(C3)C2", "note": "[Example 120, N-(6-fluoro-1H-1,3-benzodiazol-2-yl)-3,5-dimethyladamantane-1-carboxamide]", "MIC": "2 to 32"},
      {"smiles": "O=C(Nc1nc2ccccc2o1)C1CC2CCCC(C2)C1", "note": "(stereo not drawn) [Example 159, N-(1,3-benzoxazol-2-yl)bicyclo[3.3.1]nonane-3-carboxamide]", "MIC": "2 to 32"},
      {"smiles": "CC1CCC(C(=O)Nc2nc3ccc(OC(F)(F)F)cc3s2)C1", "note": "(stereo not drawn) [Example 102, 3-methyl-N-[6-(trifluoromethoxy)-1,3-benzothiazol-2-yl]cyclopentane-1-carboxamide]", "MIC": "2 to 32"},
      {"smiles": "O=C(Nc1nc2c(F)cc(F)cc2s1)C1CCCCCCC1", "note": "[Example 109, N-(4,6-difluoro-1,3-benzothiazol-2-yl)cyclooctanecarboxamide]", "MIC": "2 to 32"},
      {"smiles": "O=C(Nc1nc2ccc(OC(F)(F)F)cc2s1)C1CCCC1", "note": "[Example 130, N-[6-(trifluoromethoxy)-1,3-benzothiazol-2-yl]cyclopentanecarboxamide]", "MIC": "2 to 32"},
      {"smiles": "CC12CC3CC(C)(C1)CC(C(=O)Nc1nc4ccc(F)cc4s1)(C3)C2", "note": "[Example 123, N-(6-fluoro-1,3-benzothiazol-2-yl)-3,5-dimethyladamantane-1-carboxamide]", "MIC": "2 to 32"},
      {"smiles": "CC1CCCC(C(=O)Nc2nc3ccccc3s2)C1", "note": "(stereo not drawn) [Example 182, N-(1,3-benzothiazol-2-yl)-3-methylcyclohexane-1-carboxamide]", "MIC": "2 to 32"},
      {"smiles": "CC1CCCC(NC(=O)Nc2nc3ccc(C(F)(F)F)cc3s2)C1", "note": "(stereo not drawn) [Example 149, 1-(3-methylcyclohexyl)-3-[6-(trifluoromethyl)-1,3-benzothiazol-2-yl]urea]", "MIC": "2 to 32"},
      {"smiles": "CC12CC3CC(C)(C1)CC(C(=O)Nc1nc4cc(Cl)ccc4o1)(C3)C2", "note": "[Example 140, N-(5-chloro-1,3-benzoxazol-2-yl)-3,5-dimethyladamantane-1-carboxamide]", "MIC": "2 to 32"},
      {"smiles": "CC1(C(=O)Nc2nc3c(F)c(F)c(F)cc3s2)CCCCCC1", "note": "[Example 103, 1-methyl-N-(4,5,6-trifluoro-1,3-benzothiazol-2-yl)cycloheptane-1-carboxamide]", "MIC": "2 to 32"},
      {"smiles": "O=C(Nc1nc2c(F)cc(F)cc2s1)C1CCCCC1", "note": "[Example 157, N-(4,6-difluoro-1,3-benzothiazol-2-yl)cyclohexanecarboxamide]", "MIC": "2 to 32"},
      {"smiles": "O=C(Nc1nc2ccc(OC(F)F)cc2s1)C1CCCCCCC1", "note": "[Example 108, N-[6-(difluoromethoxy)-1,3-benzothiazol-2-yl]cyclooctanecarboxamide]", "MIC": "2 to 32"},
      {"smiles": "O=C(Nc1nc2c(F)cc(F)cc2s1)C1CCCCCC1", "note": "[Example 139, N-(4,6-difluoro-1,3-benzothiazol-2-yl)cycloheptanecarboxamide]", "MIC": "2 to 32"},
      {"smiles": "O=C(Nc1nc2ccc(C(F)(F)F)cc2s1)C1CCC2(CC1)CC2", "note": "[Example 192, N-[6-(trifluoromethyl)-1,3-benzothiazol-2-yl]spiro[2.5]octane-6-carboxamide]", "MIC": "2 to 32"},
      {"smiles": "CC12CC3CC(C)(C1)CC(C(=O)Nc1nc4cc(Cl)c(Cl)cc4o1)(C3)C2", "note": "[Example 112, N-(5,6-dichloro-1,3-benzoxazol-2-yl)-3,5-dimethyladamantane-1-carboxamide]", "MIC": "2 to 32"},
      {"smiles": "CC1(C(=O)Nc2nc3ccc(Cl)cc3s2)CCCCC1", "note": "[Example 135, N-(6-chloro-1,3-benzothiazol-2-yl)-1-methylcyclohexane-1-carboxamide]", "MIC": "2 to 32"},
      {"smiles": "O=C(Nc1nc2ccc(Cl)cc2s1)C12CC3CC(CC(C3)C1)C2", "note": "[Example 107, N-(6-chloro-1,3-benzothiazol-2-yl)adamantane-1-carboxamide]", "MIC": "2 to 32"},
      {"smiles": "Cc1cc2nc(NC(=O)C3(C)CCCCC3)sc2c(C)c1Br", "note": "[Example 106, N-(6-bromo-5,7-dimethyl-1,3-benzothiazol-2-yl)-1-methylcyclohexane-1-carboxamide]", "MIC": "2 to 32"},
      {"smiles": "CC1CC(C(=O)Nc2nc3c(Cl)cccc3s2)CC(C)(C)C1", "note": "(stereo not drawn) [Example 179, N-(4-chloro-1,3-benzothiazol-2-yl)-3,3,5-trimethylcyclohexane-1-carboxamide]", "MIC": "2 to 32"},
      {"smiles": "CC1CCCC(C(=O)Nc2nc3c(Cl)cccc3s2)C1", "note": "(stereo not drawn) [Example 167, N-(4-chloro-1,3-benzothiazol-2-yl)-3-methylcyclohexane-1-carboxamide]", "MIC": "2 to 32"},
      {"smiles": "O=C(Nc1nc2ccc(C(F)(F)F)cc2s1)C1CCCC2(CC2)C1", "note": "(stereo not drawn) [Example 148, N-[6-(trifluoromethyl)-1,3-benzothiazol-2-yl]spiro[2.5]octane-5-carboxamide]", "MIC": "2 to 32"},
      {"smiles": "Cc1cccc2sc(NC(=O)C3CC4CCC3C4)nc12", "note": "(stereo not drawn) [Example 183, N-(4-methyl-1,3-benzothiazol-2-yl)bicyclo[2.2.1]heptane-2-carboxamide]", "MIC": "2 to 32"},
      {"smiles": "CC12CC3CC(C)(C1)CC(C(=O)Nc1nc4c(F)cccc4o1)(C3)C2", "note": "[Example 144, N-(4-fluoro-1,3-benzoxazol-2-yl)-3,5-dimethyladamantane-1-carboxamide]", "MIC": "2 to 32"},
      {"smiles": "CC1(C(=O)Nc2nc3c(F)cc(F)cc3s2)CCCCC1", "note": "[Example 171, N-(4,6-difluoro-1,3-benzothiazol-2-yl)-1-methylcyclohexane-1-carboxamide]", "MIC": "2 to 32"},
      {"smiles": "CC12CC3CC(C)(C1)CC(C(=O)Nc1nc4cc(F)c(F)cc4[nH]1)(C3)C2", "note": "[Example 119, N-(5,6-difluoro-1H-1,3-benzodiazol-2-yl)-3,5-dimethyladamantane-1-carboxamide]", "MIC": "2 to 32"},
      {"smiles": "CC1CCCCC1C(=O)Nc1nc2ccccc2s1", "note": "(stereo not drawn) [Example 166, N-(1,3-benzothiazol-2-yl)-2-methylcyclohexane-1-carboxamide]", "MIC": "2 to 32"},
      {"smiles": "CC1CC(C(=O)Nc2nc3ccc(Br)cc3o2)CC(C)(C)C1", "note": "(stereo not drawn) [Example 158, N-(6-bromo-1,3-benzoxazol-2-yl)-3,3,5-trimethylcyclohexane-1-carboxamide]", "MIC": "2 to 32"},
      {"smiles": "CC1(C(=O)Nc2nc3cc(Br)ccc3s2)CCCC1", "note": "[Example 153, N-(5-bromo-1,3-benzothiazol-2-yl)-1-methylcyclopentane-1-carboxamide]", "MIC": "2 to 32"},
      {"smiles": "O=C(Nc1nc2ccccc2o1)C1C2CC3CC(C2)CC1C3", "note": "(stereo not drawn) [Example 131, N-(1,3-benzoxazol-2-yl)adamantane-2-carboxamide]", "MIC": "2 to 32"},
      {"smiles": "CC1(C(=O)Nc2nc3ccc(OC(F)(F)F)cc3s2)CCCC1", "note": "[Example 136, 1-methyl-N-[6-(trifluoromethoxy)-1,3-benzothiazol-2-yl]cyclopentane-1-carboxamide]", "MIC": "2 to 32"},
      {"smiles": "CCOc1ccc2nc(NC(=O)C34CC5CC(C)(CC(C)(C5)C3)C4)sc2c1", "note": "[Example 111, N-(6-ethoxy-1,3-benzothiazol-2-yl)-3,5-dimethyladamantane-1-carboxamide]", "MIC": "2 to 32"},
      {"smiles": "O=C(Nc1nc2ccc(Cl)cc2s1)C1CCCCCCC1", "note": "[Example 110, N-(6-chloro-1,3-benzothiazol-2-yl)cyclooctanecarboxamide]", "MIC": "2 to 32"},
      {"smiles": "CC1CC(C(=O)Nc2nc3cc(Cl)cc(Cl)c3o2)CC(C)(C)C1", "note": "(stereo not drawn) [Example 142, N-(5,7-dichloro-1,3-benzoxazol-2-yl)-3,3,5-trimethylcyclohexane-1-carboxamide]", "MIC": "2 to 32"},
      {"smiles": "CC12CCCC(C(=O)Nc3nc4ccc(C(F)(F)F)cc4o3)(CCC1)C2", "note": "[Example 132, 5-methyl-N-[6-(trifluoromethyl)-1,3-benzoxazol-2-yl]bicyclo[3.3.1]nonane-1-carboxamide]", "MIC": "2 to 32"}
    ]}
  ]
}
